Measurements reported in patent US20260083865A1, “PROSTATE SPECIFIC MEMBRANE ANTIGEN (PSMA) LIGANDS AND USE THEREOF” (priority 2022, published 2026).
Like-named read-outs stand apart in the source and are kept apart here. Numbered stars: 1 amine (or outer) side, 2 acyl side, 3 side chain; on linkers, the order of the positions; unused ones are H or OH. Bridge positions count the residues as written; N and C are the ends. Square brackets hold non-standard residues; d marks the D form. Peptide text beside a SMILES is read from it. * marks the point of attachment. Acetyl(1-DOTA-4-piperidyl) = O=C(O)CN1CCN(CC(=O)O)CCN(CC(=O)N2CCC(CC(=O)*)CC2)CCN(CC(=O)O)CC1; DOTA = O=C(O)CN1CCN(CC(=O)O)CCN(CC(=O)*)CCN(CC(=O)O)CC1; Pro(trans-4-F) = O=C(O)[C@@H]1C[C@@H](F)CN1; Phe(3-Cl) = N[C@@H](Cc1cccc(Cl)c1)C(=O)O; Phe(4-Cl) = N[C@@H](Cc1ccc(Cl)cc1)C(=O)O; Arg(Me) = CNC(=N)NCCC[C@H](N)C(=O)O; X1 = O=C(CC1CCN([*:1])CC1)[*:2]; Lys(Me) = CNCCCC[C@H](N)C(=O)O; Tle = CC(C)(C)[C@H](N)C(=O)O; Deg = CCC(N)(CC)C(=O)O; Hexanoyl = CCCCCC(=O)*; Aib = CC(C)(N)C(=O)O

Key:
[1] = target: T1, Fc-fusion protein of human PSMA (hPSMA-Fc) (Homo sapiens, UniProt Q04609); experiment: Surface plasmon resonance assay (Biacore T200, single cycle kinetic); assay type: binding; settings: hPSMA-Fc, 25° C., read-out: pKD CAT (converted)
T1 construct: purchased Acro Biosystems PSA-H5264
T1 sequence (Q04609 44-750 limits assumed): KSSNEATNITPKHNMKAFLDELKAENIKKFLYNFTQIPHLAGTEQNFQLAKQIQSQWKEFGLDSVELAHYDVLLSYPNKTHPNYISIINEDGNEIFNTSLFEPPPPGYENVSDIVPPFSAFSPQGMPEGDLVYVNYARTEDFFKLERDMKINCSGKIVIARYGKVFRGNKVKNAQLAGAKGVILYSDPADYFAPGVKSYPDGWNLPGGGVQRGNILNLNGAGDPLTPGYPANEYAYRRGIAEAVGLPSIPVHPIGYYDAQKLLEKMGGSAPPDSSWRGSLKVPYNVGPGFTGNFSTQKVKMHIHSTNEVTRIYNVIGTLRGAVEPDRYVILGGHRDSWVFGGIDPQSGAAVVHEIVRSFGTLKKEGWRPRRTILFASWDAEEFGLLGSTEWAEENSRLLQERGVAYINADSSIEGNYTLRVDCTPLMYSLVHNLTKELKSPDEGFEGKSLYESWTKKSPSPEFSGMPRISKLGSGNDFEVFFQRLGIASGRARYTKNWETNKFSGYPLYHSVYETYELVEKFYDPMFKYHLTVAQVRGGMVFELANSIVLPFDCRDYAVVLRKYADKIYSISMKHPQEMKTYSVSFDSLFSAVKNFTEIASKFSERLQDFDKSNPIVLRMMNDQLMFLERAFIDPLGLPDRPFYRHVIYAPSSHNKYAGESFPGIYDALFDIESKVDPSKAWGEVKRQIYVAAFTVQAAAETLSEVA
Procedure, shortened: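 hPSMA-Fc was captured (~1000 RU) on an Fc-binding-peptide CM5 chip, and compounds were run in single cycle kinetic mode at 25° C in HBST with 0.1% DMSO. Double-blank-corrected sensorgrams were fitted to a 1:1 Langmuir model to give KD, reported as pKD.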

[2] = target: T2, PSMA-expressing C4-2 cells (Homo sapiens, UniProt Q04609); experiment: FACS binding assay (competition with 50 nM PSM-0183); settings: read-out: pIC50 [C4-2] CAT (converted)
T2 construct: PSMA-expressing C4-2 cells (ATCC, Cat. No. CRL-3314) were cultured in RPMI-1640; host or cells: C4-2 cells
T2 sequence (Q04609 whole entry): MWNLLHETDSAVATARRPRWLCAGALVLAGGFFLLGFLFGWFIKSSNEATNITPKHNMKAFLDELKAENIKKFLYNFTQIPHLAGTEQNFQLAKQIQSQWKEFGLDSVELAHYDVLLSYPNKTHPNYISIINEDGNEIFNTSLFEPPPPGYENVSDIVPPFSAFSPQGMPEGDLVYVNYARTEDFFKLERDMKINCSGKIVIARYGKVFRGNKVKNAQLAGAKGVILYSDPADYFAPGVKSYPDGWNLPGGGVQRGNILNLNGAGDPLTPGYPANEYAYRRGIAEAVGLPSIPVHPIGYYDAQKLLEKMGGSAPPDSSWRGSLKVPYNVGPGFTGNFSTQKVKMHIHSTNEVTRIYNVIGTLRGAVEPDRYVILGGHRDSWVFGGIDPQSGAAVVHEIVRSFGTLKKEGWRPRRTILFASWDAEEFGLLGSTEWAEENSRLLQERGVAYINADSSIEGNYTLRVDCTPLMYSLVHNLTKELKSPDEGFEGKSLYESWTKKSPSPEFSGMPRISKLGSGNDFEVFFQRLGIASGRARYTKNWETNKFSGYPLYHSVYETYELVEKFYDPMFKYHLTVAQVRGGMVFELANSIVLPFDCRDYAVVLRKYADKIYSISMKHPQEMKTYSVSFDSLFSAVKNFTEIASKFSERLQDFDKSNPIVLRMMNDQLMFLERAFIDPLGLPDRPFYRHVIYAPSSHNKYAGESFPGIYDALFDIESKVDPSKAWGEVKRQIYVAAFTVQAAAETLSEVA
Procedure, shortened: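 C4-2 cells were incubated 1 h at 4 °C with 50 nM AF488-labelled peptide PSM-0183 plus increasing test compound concentrations, then washed twice in ice-cold buffer. Median fluorescence in the AF488 channel was read by flow cytometry. IC50/pIC50 was derived by 4PL fitting of MFI versus concentration.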

[3] = pKD category for PSMA SPR activity assay
[4] = pIC50 category of FACS binding, C4-2 cells

Kd [1, 3] | IC50 [2, 4] | Structure (SMILES) | other results
< 12.6 nM | < 200 nM | CNCCCC[C@@H]1NC(=O)[C@@H](NC(=O)[C@H](Cc2ccc(Cl)cc2)NC(=O)C(C)(C)NC(=O)[C@@H](NC(=O)CC2CCN(C(=O)CN3CCN(CC(=O)O)CCN(CC(=O)O)CCN(CC(=O)O)CC3)CC2)[C@@H](C)O)CSSC[C@@H](C(=O)N[C@H](C(N)=O)C(C)(C)C)NC(=O)[C@H](CC(N)=O)NC(=O)C(C)(C)NC(=O)[C@H](CCCNC(=N)NC)NC1=O [PSM-0380, DOTA-Cmp-Thr-Aib-Pcf-[Cys-Lys(Me)-Arg(Me)-Aib-Asn-Cys]-Tle-NH2] ({DOTA}-[X1]T[Aib][Phe(4-Cl)]C[Lys(Me)][Arg(Me)][Aib]NC[Tle]-NH2; disulfide 5-10) | –
< 12.6 nM | < 200 nM | CCCCCC(=O)N[C@H](C(=O)NC(C)(C)C(=O)N[C@@H](Cc1ccc(Cl)cc1)C(=O)N[C@H]1CSSC[C@@H](C(=O)N[C@H](C(=O)N[C@H](C(=O)N[C@H](CCCCNC(=O)CC2CCN(C(=O)CN3CCN(CC(=O)O)CCN(CC(=O)O)CCN(CC(=O)O)CC3)CC2)C(N)=O)[C@@H](C)O)C(C)(C)C)NC(=O)[C@H](CC(N)=O)NC(=O)C(C)(C)NC(=O)[C@H](CCCNC(=N)N)NC(=O)[C@H](CCCCN)NC1=O)[C@@H](C)O [PSM-0400, Hex-Thr-Aib-Pcf-[Cys-Lys-Arg-Aib-Asn-Cys]-Tle-Thr-lys(DOTA-Cmp)-NH2] (Hexanoyl-T[Aib][Phe(4-Cl)]CKR[Aib]NC[Tle]T[dK](Acetyl(1-DOTA-4-piperidyl))-NH2; disulfide 4-9) | –
< 12.6 nM | < 200 nM | CC(=O)N[C@H](C(=O)NC(C)(C)C(=O)N[C@@H](Cc1ccccc1)C(=O)N[C@H]1CSSC[C@@H](C(=O)N[C@H](C(=O)N[C@H](C(=O)N[C@@H](CC(=O)O)C(N)=O)[C@@H](C)O)C(C)(C)C)NC(=O)[C@H](CC(N)=O)NC(=O)[C@@H]2C[C@@H](F)CN2C(=O)[C@H](CCCNC(=N)N)NC(=O)[C@H](CCCCN)NC1=O)[C@@H](C)O [PSM-0392, Ac-Thr-Aib-Phe-[Cys-Lys-Arg-4Tfp-Asn-Cys]-Tle-Thr-Asp-NH2] (Ac-T[Aib]FCKR[Pro(trans-4-F)]NC[Tle]TD-NH2; disulfide 4-9) | –
– | – | CNCCCC[C@@H]1NC(=O)[C@@H](NC(=O)[C@H](Cc2cccc(Cl)c2)NC(=O)C(C)(C)NC(=O)[C@@H](NC(=O)CC2CCN(C(=O)CN3CCN(CC(=O)O)CCN(CC(=O)O)CCN(CC(=O)O)CC3)CC2)[C@@H](C)O)CSSC[C@@H](C(=O)N[C@H](C(N)=O)C(C)(C)C)NC(=O)[C@H](CC(N)=O)NC(=O)C(C)(C)NC(=O)[C@H](CCCNC(=N)NC)NC1=O [PSM-0354, DOTA-Cmp-Thr-Aib-Mcf-[Cys-Lys(Me)-Arg(Me)-Aib-Asn-Cys]-Tle-NH2] ({DOTA}-[X1]T[Aib][Phe(3-Cl)]C[Lys(Me)][Arg(Me)][Aib]NC[Tle]-NH2; disulfide 5-10) | Kd ([1]; PSMA SPR assay, pKD category): 12.6 to 126 nM; IC50 ([2]; FACS binding, PSMA-expressing C4-2 cells, pIC50 category): < 200 nM
> 501 nM | > 3160 nM | CC(=O)N[C@@H](Cc1ccc(Cl)cc1)C(=O)N[C@H]1CSSC[C@@H](C(N)=O)NC(=O)[C@H](CC(N)=O)NC(=O)C(C)(C)NC(=O)[C@H](CCCNC(=N)N)NC(=O)[C@H](CCCCN)NC1=O [PSM-0524, Ac-Pcf-[Cys-Lys-Arg-Aib-Asn-Cys]-NH2] (Ac-[Phe(4-Cl)]CKR[Aib]NC-NH2; disulfide 2-7) | –
< 12.6 nM | 200 to 1260 nM | CC(=O)N[C@H](C(=O)NC(C)(C)C(=O)N[C@@H](Cc1ccccc1)C(=O)N[C@H]1CSSC[C@@H](C(=O)N[C@H](C(=O)N[C@H](C(=O)N[C@@H](CC(=O)O)C(N)=O)[C@@H](C)O)C(C)(C)C)NC(=O)[C@H](CC(N)=O)NC(=O)[C@H](C)NC(=O)[C@H](CCCNC(=N)N)NC(=O)[C@@H](CCCCN)NC1=O)[C@@H](C)O [PSM-0535, Ac-Thr-Aib-Phe-[Cys-lys-Arg-Ala-Asn-Cys]-Tle-Thr-Asp-NH2] (Ac-T[Aib]FC[dK]RANC[Tle]TD-NH2; disulfide 4-9) | –
– | – | CCC(CC)(NC(=O)[C@@H](NC(C)=O)[C@@H](C)O)C(=O)N[C@@H](Cc1ccccc1)C(=O)N[C@H]1CSSC[C@@H](C(=O)N[C@H](C(=O)N[C@H](C(N)=O)[C@@H](C)O)C(C)(C)C)NC(=O)[C@H](CC(N)=O)NC(=O)C(C)(C)NC(=O)[C@H](CCCNC(=N)N)NC(=O)[C@H](CCCCN)NC1=O [PSM-0187, Ac-Thr-Deg-Phe-[Cys-Lys-Arg-Aib-Asn-Cys]-Tle-Thr-NH2] (Ac-T[Deg]FCKR[Aib]NC[Tle]T-NH2; disulfide 4-9) | Kd ([1]; SPR, single cycle kinetic, category): < 12.6 nM; IC50 ([2]; FACS binding, C4-2 cells, competition with 50 nM PSM-0183, category): < 200 nM
